# Results published in PubChem BioAssay AID1421 (Emory University Molecular Libraries Screening Center, 2008).
# Active and inactive are the calls of the source. No rule for the calls is given here.
# Target: Prostaglandin E2 receptor EP2 subtype (Homo sapiens) (UniProt P43116)
# Test: EP2 receptor modulators, dose response, cell-based, human EP2, PGE2 EC50 shift (AID 1421)
# Conditions: EP2-expressing cells, PGE2 EC50 shift by compound
# Prostaglandin E2 receptor EP2 subtype (Homo sapiens), sequence (P43116 whole entry, looked up): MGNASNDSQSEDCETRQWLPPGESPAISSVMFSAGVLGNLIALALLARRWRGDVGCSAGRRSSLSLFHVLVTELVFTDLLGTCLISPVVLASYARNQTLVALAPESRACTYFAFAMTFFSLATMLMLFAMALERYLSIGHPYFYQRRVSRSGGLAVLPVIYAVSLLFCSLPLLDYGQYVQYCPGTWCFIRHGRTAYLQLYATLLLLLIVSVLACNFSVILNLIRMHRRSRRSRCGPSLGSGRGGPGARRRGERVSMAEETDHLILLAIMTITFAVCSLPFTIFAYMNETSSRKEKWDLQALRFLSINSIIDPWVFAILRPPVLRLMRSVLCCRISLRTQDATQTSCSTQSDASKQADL
row,SMILES,outcome
1,Cn1c(=O)c(NC2CCCCC2)c2c3c(cccc31)C(=O)c1ccccc1-2,active
2,CCn1c2c(c3cc(OCC(C)C)ccc31)CCCC2=O,active
3,Cc1ccc(-c2cc(C(F)(F)F)nn2-c2ccc(S(N)(=O)=O)cc2)cc1,active
4,Cc1nn2c(c1-c1ccccc1)N=C(c1ccco1)CC2c1ccccc1 (stereo not given),active
5,NC(=O)CSc1nc(-c2ccccc2)c(-c2ccccc2)o1,active
6,CCOP(=S)(OCC)Oc1nc(Cl)c(Cl)cc1Cl,active
7,CC(C)OC(=O)CSc1nc(Cc2ccccc2)nc2ccccc12,active
8,CCSc1cc(N2CCOCC2)nc(-c2ccccc2)n1,active
9,COc1ccc(S(=O)(=O)N2c3cc(C)ccc3OCC2C(C)(C)C)cc1 (stereo not given),active
10,CCC1COC(c2cccn2Cc2ccc(Cl)cc2)=N1 (stereo not given),active
11,CCOC(=O)c1cc(CC)sc1NC(=O)c1cc(OC)c(OC)c(OC)c1,active
12,CCCSc1ncnc2c1oc1ccccc12,active
13,CC(=O)N(Cc1cccs1)Cc1cc2ccc(C)c(C)c2nc1Cl,active
14,O=C(NCc1ccc(F)cc1)c1ccccc1OCc1ccccc1,active
15,C(=N/n1c2ccccc2c2ccccc21)/c1ccco1,active
16,OC(Cc1ccccc1)(Cc1ccccc1)c1ccccc1,active

# Same assay, conditions: EP2-expressing cells, PGE2 EC50 shift by compound; measured here: PGE2 EC50 at 6.7 uM compound
row,SMILES,PGE2 EC50 with compound [nM]
1,Cc1cc(C)c(C#N)c(Oc2ccccc2Br)n1,1.01
2,CCOC(=O)C1=CN(CC2CCCO2)C=C(C(=O)OCC)C1c1ccccc1C(F)(F)F (stereo not given),1.3
3,CCC(C)(C(=O)NC1CCCCC1)N(C(=O)C1CCC(=O)N1)c1ccccc1 (stereo not given),1.17
4,Cn1c(=O)c(NC2CCCCC2)c2c3c(cccc31)C(=O)c1ccccc1-2,0.55
5,CCn1c2c(c3cc(OCC(C)C)ccc31)CCCC2=O,1.09
6,O=C(CSc1ncnc2c1oc1ccccc12)Nc1ccccc1F,1.86
7,COc1cc(C)c(C(=O)Oc2cc(C)c(C(=O)O)c(O)c2C)c(OC)c1C,0.98
8,Cc1ccc(-c2cc(C(F)(F)F)nn2-c2ccc(S(N)(=O)=O)cc2)cc1,1.28
9,O=C(CSc1nc2cc(Cl)ccc2s1)N1CCCc2ccccc21,1.09
10,C=CCOc1nc(-c2ccncc2)nc2ccccc12,2.48
11,Cc1ccccc1/C=C/c1nc2ccccc2c(=O)n1CCc1ccccc1,1.38
12,Cc1nn2c(c1-c1ccccc1)N=C(c1ccco1)CC2c1ccccc1 (stereo not given),0.8
13,O=C(O)c1oc(C(=O)O)c(C(=O)O)c1C(=O)O,1.51
14,CCC(Sc1nc(-c2ccccc2)c(C#N)c(=O)[nH]1)C(=O)Nc1cc(C)on1 (stereo not given),1.38
15,NC(=O)CSc1nc(-c2ccccc2)c(-c2ccccc2)o1,0.94
16,COc1ccc(-n2c(CCc3ccccc3)nnc2SCC(=O)c2ccccc2)cc1,1.57
17,COC(=O)c1[nH]c2ccccc2c1NS(=O)(=O)c1ccc(F)c(C)c1,0.88
18,Fc1ccc(Sc2nc(-c3ccccc3)nnc2C(F)(F)F)cc1,0.94
19,CCOP(=S)(OCC)Oc1nc(Cl)c(Cl)cc1Cl,0.91
20,CCOC(=O)c1c(CC(C)C)csc1N,1.47
21,CC(C)(Sc1ccc(CCN(CCCCC2CCCCC2)C(=O)NC2CCCCC2)cc1)C(=O)O,1.23
22,CCOC(=O)CSc1nc(Cc2ccccc2)nc2ccccc12,1.15
23,O=C(Nc1cccc(Cl)c1N1CCCCC1)c1ccc2c(c1)OCCO2,0.64
24,Cc1noc(C)c1CSc1nc2ccccc2c(=O)n1-c1ccc(F)cc1F,1.09
25,O=C(CSc1ncnc2c1oc1ccccc12)Nc1cccc(F)c1,3.15
26,CCCCOP(=O)(OCCCC)C(Nc1ccccc1)c1ccc2c(c1)OCO2 (stereo not given),0.8

row,SMILES,PGE2 EC50 with compound [nM]
1,O=c1[nH]c(=S)c2c(n1-c1ccccc1)CCC2,1.46
2,C=C[C@@](C)(O)CCC1C(=C)C[C@H](O)C2C(C)(C)CCCC12C (stereo not given in full),2.91
3,CC(C)OC(=O)CSc1nc(Cc2ccccc2)nc2ccccc12,1.14
4,CC(Cc1ccccc1)NC(=O)C1(c2ccccc2)CCOCC1 (stereo not given),1.2
5,CCC1(C)Cc2ccccc2-c2nc3n(c(=O)c21)CCS3 (stereo not given),1.37
6,CC1(C)Cc2c(C#N)c(N3CCCC3)nc(-c3ccco3)c2CO1,2.33
7,Cc1ccccc1Cn1c(-c2cncs2)nc2ccccc21,2.57
8,Oc1ccc2ccccc2c1Cc1c(O)ccc2ccccc12,1.35
9,Cc1cc(SCC(=O)Nc2cccnc2Cl)nc2ccccc12,0.87
10,Cc1ccc(Cn2c(Cc3ccccc3)nc3ccccc32)cc1,2.5
11,CCOC(=O)c1c(NC(=O)CC(C)C)sc(C(C)=O)c1C,1.25
12,COc1ccc(-c2cc(C(F)(F)F)nc(NC3CCCC3)n2)cc1OC,0.7
13,CCSc1cc(N2CCOCC2)nc(-c2ccccc2)n1,1.02
14,CCOc1ccc(OCC)c(NC(=O)CN2CCN(c3cccc(C)c3)CC2)c1,1.02
15,COc1ccc(S(=O)(=O)N2c3cc(C)ccc3OCC2C(C)(C)C)cc1 (stereo not given),0.75
16,CCC1COC(c2cccn2Cc2ccc(Cl)cc2)=N1 (stereo not given),1.27
17,CCOC(=O)c1cc(CC)sc1NC(=O)c1cc(OC)c(OC)c(OC)c1,0.82
18,Cc1cc(C)n(-c2cc(-c3ccccc3)nc(C)n2)n1,2.6
19,CN(CC(=O)Nc1ccccc1-c1ccccc1)C1CCCCC1,0.51
20,CN(/N=C\c1ccc(O)c(O)c1)c1nc(-c2ccccc2)cc(-c2ccccc2)n1,1.22
21,CCCCOC(=O)n1c(=S)oc2cc(Cl)ccc21,0.85
22,Cc1nc2ccccc2c(-c2ccccc2)c1C(=O)c1ccccc1,2.55
23,C[C@]12CCC(=O)C=C1CCC1C2CC[C@@]2(C)C1CC[C@@H]2O (stereo not given in full),1.55
24,CCCC(=O)Nc1ccccc1Sc1ncnc2scc(-c3ccccc3)c12,1.07
25,COC(=O)c1c(NC(=O)c2ccccc2N(C)S(=O)(=O)c2ccccc2)sc2c1CCCC2,1.49
26,Cc1cc(Oc2ccccc2)nc(NCc2ccccc2)n1,0.63

row,SMILES,PGE2 EC50 with compound [nM]
1,CNC(=O)c1cc2c(=O)n3cc(C)ccc3nc2n(C(C)C)c1=N,1.13
2,C[C@H]1CC[C@@H](C(C)(C)O)CC2=C1CC[C@@H]2C,1.06
3,CC(CC(=O)O)(CC(=O)O)C(=O)O,0.87
4,S=c1[nH]nc(C23CC4CC(CC(C4)C2)C3)n1Cc1ccco1,2.45
5,CCOC(=O)n1c(=O)n(Cc2ccc(Cl)c(Cl)c2)c2ccccc21,0.9
6,O=C(Nc1ccccc1N1CCCCC1)c1ccc(F)cc1,1.01
7,Cc1ccc(C(=O)c2coc3ccc(OCC(=O)O)cc23)cc1,2.78
8,O=C(O)CCCCCCCCCCCc1ccccc1,0.88
9,CCCn1cnc2sc(CC)cc2c1=O,1.25
10,O=C(O)c1nn(CC(=O)N(C2CCCCC2)C2CCCCC2)c(=O)c2ccccc12,1.12
11,Cc1cc(C)c(S(=O)(=O)O)c(C)n1,1.25
12,Cc1cccc(/C=C/c2nc3ccccc3c(=O)n2Cc2ccccc2)c1,2.67
13,CCOC(=O)C1CCN(c2c(C(=O)c3ccccc3)cnc3ccc(Cl)cc23)CC1,0.89
14,CCOC(=O)c1ccc(CN(Cc2ccc(C)cc2)S(=O)(=O)c2cccc([N+](=O)[O-])c2)cc1,1.62
15,Cc1ccc(-c2csc3ncnc(N4CCc5ccccc5C4)c23)cc1,0.93
16,CCCCOc1ccccc1Cn1c(=O)oc2ccccc21,0.81
17,C=CCn1c(=O)c2c(nc(-c3ccc(S(=O)(=O)O)cc3)n2C)n(C)c1=O,2.68
18,CCCSc1ncnc2c1oc1ccccc12,0.69
19,CC(=O)N(Cc1cccs1)Cc1cc2ccc(C)c(C)c2nc1Cl,1.01
20,CC(C)(C)N(Cc1ccccc1)C(=O)c1ccc(Br)o1,0.94
21,O=C(NCc1ccc(F)cc1)c1ccccc1OCc1ccccc1,1.03
22,Cc1ccnc(SCC(=O)n2c3c(c4ccccc42)CC(C)CC3)n1 (stereo not given),0.86
23,CC(C)c1ccc2c(c1)CCC1C(C)(C(N)=O)CCCC21C (stereo not given),0.9
24,Cc1ccccc1C(=O)Nc1ccccc1Sc1ccccc1,0.86
25,Clc1ccccc1Cn1c(/C=C/c2ccco2)nc2ccccc21,0.99
26,COc1ccc(C2=Nn3c(nnc3C3CCCCC3)SC2)cc1OC,1.58

row,SMILES,PGE2 EC50 with compound [nM]
1,CCOC(=O)c1c(/N=C/C2C(=O)CCCC2=O)sc2c1CCCC2,1.32
2,Cc1cccc(N=N/C(=C\O)C(=O)c2ccc(Br)cc2)c1,0.31
3,Cc1ccccc1-n1c(Cn2c(=O)sc3ccccc32)nnc1SCC(=O)N1CCCC1,1.05
4,COc1cnc(SCc2c(Cl)cccc2Cl)nc1Cl,1.76
5,COc1ccc(C(=O)COC(=O)C(CCSC)NS(=O)(=O)c2ccc(Cl)cc2)cc1 (stereo not given),2.2
6,O=S(=O)(Nc1ccccc1N1CCCCC1)c1ccc(Cl)s1,1.49
7,CC(=O)CSc1nc(-c2cccs2)c(C#N)c(=O)[nH]1,2.81
8,COc1ccc(-c2c(C(C)=O)c(C)nc3sc4c(c23)NC(c2ccccc2)NC4=O)cc1 (stereo not given),1.87
9,COc1ccc(S(=O)(=O)N(Cc2cccs2)C2CCCC2)cc1,1.26
10,Cc1ccc(C(=O)O)cc1NC(=S)NC(=O)c1ccc(-c2ccccc2)cc1,0.83
11,CC(=O)c1cc(C#N)c(SCc2ccccc2)nc1C,0.83
12,CC1=NN(c2ccc(S(=O)(=O)O)cc2)C(=O)/C1=C\c1ccc(Cl)cc1,1.07
13,C=C(C)Cn1c(C)cc(C)c(S(=O)(=O)c2ccc(C)cc2)c1=O,1.04
14,Cc1occc1-c1nnc(SCC(=O)Nc2ccccc2N2CCCCC2)n1C,2.71
15,C/C(CCC(C)C)=N\NC(=S)NCc1ccccc1,0.88
16,C(=N/n1c2ccccc2c2ccccc21)/c1ccco1,1.08
17,Cn1c(=O)[nH]c(=O)c2c1nc(N1CCCCCC1)n2Cc1cccc2ccccc12,2.64
18,C=CCn1c(SCC(N)=O)nc(C)cc1=O,1.07
19,C=CCn1c(=O)c2c3c(sc2n2c(Nc4ccc(OC)cc4)nnc12)CCCC3,0.77
20,O=C(c1ccco1)N(CC1CCCO1)c1nc(-c2ccccc2)cs1 (stereo not given),0.61
21,Cc1ccccc1-c1n[nH]c(=S)n1/N=C/c1ccc(-c2ccccc2Br)o1,2.42
22,Cc1ccc(-c2nn3c(C)nnc3s2)cc1NCc1c(F)cccc1Cl,0.91
23,O=C(Nc1ccc2c(c1)OCO2)c1cccc2c1C(=O)N(C1CCCCC1)C2,0.8
24,OC(Cc1ccccc1)(Cc1ccccc1)c1ccccc1,1.02
25,CCc1nnc2n1N=C(c1ccc(-c3cc(Cl)ccc3Cl)o1)CS2,0.89
26,CCOC(=O)C(C)Sc1ncc(OC)c(Sc2ccc(Cl)cc2)n1 (stereo not given),0.67
